Test results from patent US20090325923A1, “NEW METHOD FOR THE TREATMENT OF INFLAMMATORY DISEASES” (TOPOTARGET SWITZERLAND SA, priority 2006, published 2009).

Legend:
RAW264.7 cell line [1] = assay: LPS-stimulated TNF secretion by ELISA in RAW264.7 cells; assay type: cell-based, mouse; settings: RAW264.7 cultured overnight with FK866 plus the added substance, LPS 2 h
Protocol: The murine RAW264.7 cell line was stimulated with LPS in the presence of FK866. TNF protein concentrations were determined by ELISA (above panel) while mRNA levels were determined by RT-PCR (below panel).
(§1) (A) The mouse macrophage cell line RAW264.7 was cultured overnight with increasing doses of FK866, and then stimulated with LPS for 2 h. The culture supernatants were tested for TNF content by ELISA and intracellular NAD levels were measured by an enzymatic assay.
(§2) (B) RAW264.7 cells were cultured overnight in the presence of FK866 and the intracellular pool of NAD was restored by co-incubation of the cells with nicotinic acid (NA). Cells were then stimulated with LPS for 2 h and the culture supernatant was tested for TNF content by ELISA.
(§3) (C) RAW264.7 cells were cultured overnight in the presence of FK866 and NAD levels were maintained by culturing the cells in the presence of extracellular NAD. Cells were then stimulated with LPS for 2 h and the culture supernatant was tested for TNF content by ELISA.
This example illustrates that FK866 inhibits TNFα secretion at a posttranscriptional level. The murine RAW 264.7 cell line was incubated in the presence of graded doses of FK866, stimulated with microbial products, and levels of TNFα released in the supernatant evaluated by ELISA.
as §1, with “This example illustrates the correlation between proinflammatory cytokine secretion and NAD levels in the cell.” for “(A)”
as §2, with “In another experiment,” for “(B)”, “nicotinic acid. Nicotinic” for “nicotinic”, “is a precursor of NAD, but its transformation into NAD is not dependent upon NMPRT and is thus not inhibited by FK866.” for “(NA).”
(§4) In another experiment, RAW264.7 cells were cultured overnight in the presence of FK866 and NAD levels were maintained by culturing the cells in the presence: of extra-cellular NAD. Cells were then stimulated with LPS for 2 h and the culture supernatant was tested for TNF content by ELISA.

RAW264.7 cell line [2] = assay: Intracellular NAD by enzymatic assay in RAW264.7 cells; assay type: cell-based, mouse; settings: RAW264.7 cultured overnight with FK866 plus the added substance, LPS 2 h
Protocol: as §1, §2, §3
as §1, with “This example illustrates the correlation between proinflammatory cytokine secretion and NAD levels in the cell.” for “(A)”
as §2, with “In another experiment,” for “(B)”, “nicotinic acid. Nicotinic” for “nicotinic”, “is a precursor of NAD, but its transformation into NAD is not dependent upon NMPRT and is thus not inhibited by FK866.” for “(NA).”
as §4

[3] = test system: Human monocytic cell line THP-1; assay: LPS-stimulated cytokine secretion by ELISA in THP-1 cells; assay type: cell-based
Protocol: (§5) Human monocytic cell line THP-1 was cultured overnight in the presence of graded doses of nicotinic acid (NA), a precursor of NAD, and then stimulated with lipopolysaccharide (LPS) from gram-negative bacteria for 2 h. The cell supernatant was tested for tumor necrosis factor (TNF) content by ELISA and the intracellular pool of NAD was measured by an enzymatic assay.
(§6) Human monocytic cell line THP-1, human peripheral blood mononuclear cells (PBMC), human monocyte-derived dendritic cells, or mouse peritoneal macrophages were isolated and cultured overnight with increasing doses of FK866, and then stimulated with LPS for 6 h. The culture supernatants were tested for TNF and IL-6 content by ELISA
THP-1 cells were incubated in the presence of 10 nM FK866 and graded doses of NMN. Cells were further stimulated with LPS and intracellular NAD levels and TNFα secretion were determined using standard assays.
as §5, with “This example illustrates the direct relationship between NAD levels in cells and pro-inflammatory cytokine secretion. Human” for “Human”, “of” for “of graded doses of”, “acid,” for “acid (NA),”
as §6, with “This example describes the inhibition of pro-inflammatory cytokines production by the competitive small molecular weight compound inhibitor of NMPRT, ((E)-N-[4-(1-benzoylpiperidin-4-yl)butyl]-3-(pyridin-3-yl)acrylamide, designated FK866). Human” for “Human”, “ELISA.” for “ELISA”
This example illustrates that NAMPT is the only molecular target of FK866. […]

[4] = test system: Human monocytic cell line THP-1; assay: Intracellular NAD by enzymatic assay in THP-1 cells; assay type: cell-based
Protocol: The human THP-1 monocytic cell line was cultured in the presence of medium or FK866 and stimulated by LPS.

[5] = test system: collagen-induced arthritis; assay: Collagen-induced arthritis (CIA) mouse model; assay type: in vivo; settings: FK866 10 mg/kg ip twice daily or etanercept 15 mg/kg every three days, over 15 days
[6] = THP-1, 10 nM FK866 and graded doses of NMN, LPS

NC(=O)c1ccc[n+]([C@@H]2O[C@H](COP(=O)([O-])OP(=O)(O)OC[C@H]3O[C@@H](n4cnc5c(N)ncnc54)[C@H](O)[C@@H]3O)[C@@H](O)[C@H]2O)c1 [NAD, nicotinamide adenyl dinucleotide]
TNF synthesis in the presence of FK866 (RAW264.7 cell line [1]): restored
NAD levels in the presence of FK866 (RAW264.7 cell line [2]): remained high

NC(=O)c1ccc[n+]([C@@H]2O[C@H](COP(=O)([O-])O)[C@@H](O)[C@H]2O)c1 [nicotinamide mononucleotide (NMN), nicotinamide mononucleotide]
TNFα production despite exposure to FK866 [3, 6]: restored
intracellular NAD levels despite exposure to FK866 [4, 6]: restored

O=C(O)c1cccnc1 [nicotinic acid]
TNF secretion ([3]; THP-1 cultured overnight with graded doses of nicotinic acid, LPS 2 h, ELISA): increased in parallel in a dose-dependent fashion
intracellular NAD levels ([4]; THP-1 cultured overnight with graded doses of nicotinic acid, LPS 2 h): increased in parallel in a dose-dependent fashion
TNF synthesis in the presence of FK866 (RAW264.7 cell line [1]): restored
NAD levels in the presence of FK866 (RAW264.7 cell line [2]): maintained high levels of NAD

etanercept
severity of arthritis in CIA mice [5]: P<0.05 FK866 or etanercept versus placebo
